Results on 4 compounds are retold here after publication PMC11458958 (iScience, 2024).

Residues, ends and D or L forms follow the SMILES beside them. *: point of attachment. Cbz = O=C(OCc1ccccc1)*

For one series, the system named is cathepsins B and L. The following applies: cited from earlier work.
The test system of series [1] is mice with post-infarction remodeling. It counts as in vivo, C57BL/6J mice. The following applies: 20 mg/kg daily oral.
The next series deals with TAC mice. Nature of the series: Transverse aortic constriction.
Series [2] has as its system mice subjected to coronary occlusion and reperfusion. Nature of the series: In vivo acute reperfusion injury: 45 min coronary occlusion, 24 h reperfusion. More on the design: species or system C57BL/6J mice. Particulars: 25 mg/kg i.p. 10 min before reperfusion.
For a further series, the system named is cathepsin L. Nature of the series: Cathepsin activity in heart homogenates. It is filed as in vivo, C57BL/6J mice. The following applies: 25 mg/kg.
For a further series, the system named is cathepsins K, B, L and S. Particulars: 25 mg/kg; cited from earlier work.
Setting [3] is: 4 weeks after TAC, 10 mg/kg daily oral from 1 to 4 weeks after TAC (3w).

As for `CC(C)[C@H](NC(=O)OCc1ccccc1)C(=O)N[C@H](C=O)Cc1ccccc1` [MDL-28170] (Cbz-Val-Phe-aldehyde), the cathepsin inhibition result in the series on cathepsins B and L was “inhibit at least cathepsins B and L”.

In series [1] (4 weeks of reperfusion), `CCOC(=O)[C@H](CCc1ccccc1)N[C@@H](C)C(=O)N1CCC[C@H]1C(=O)O` [Enalapril] came in with an EF of 52.6 ± 2.2%, an FS of 22.7 ± 1.3%, an IVST of 0.79 ± 0.03 mm and an LVEDD of 4.85 ± 0.19 mm. In series [1] (4 weeks of reperfusion), this compound yielded an LVESD of 3.75 ± 0.12 mm and an LVPWT of 0.67 ± 0.02 mm. Further, the “reduction of scar size vs. control group” value in series [1] (28 days) is listed as 24%. For the same compound, the mortality rate in series [1] (28 days of reperfusion) was 20%. Further, in the series on TAC mice (setting [3]), the EF was 49.5 ± 1.6^$∗ %, the FS is 20.8 ± 0.8^$∗ %, the HW is recorded as 151.8 ± 4.9 mg and the HW/TL is recorded as 8.68 ± 0.26^$∗ mg/mm. Further, in the series on TAC mice (setting [3]), the IVST is reported as 0.97 ± 0.03^$∗ mm, the LVEDD was 4.48 ± 0.05∗ mm, the LVESD is listed as 3.55 ± 0.05^$∗ mm and the LVPWT was 0.78 ± 0.03^$ mm. In addition, the “EF reduction with respect to baseline” value in the series on TAC mice (4 weeks after TAC, 10 mg/kg daily oral starting 1 week after TAC) was 16%. In addition, the “capillary density (CD31 staining)” value with TAC mice (starting 1 week after TAC surgery, 10 mg/kg daily oral) is on record as “preserved capillary density”.

With `COCCOCCOC(=O)N[C@@H](CC(C)C)C(=O)N[C@@H](Cc1ccccc1)C(=O)C(=O)NC1CC1` [SNJ-1945], the cathepsin inhibition result in the series with cathepsins B and L is “inhibit at least cathepsins B and L”.

With `CCCN1CCN(c2ccc(C(=O)NC3(C(=O)NCC#N)CCCCC3)cc2)CC1` [balicatib], in series [2], the “effect on infarct size” value was “failed to attenuate infarct size”. Further, in the series on cathepsin L, the “cathepsin L activity in heart homogenates, reduced, compared to sham mice” value is reported as 41.2 ± 7.3%. Besides, the “cathepsin inhibition at this dose” value in the series on cathepsins K, B, L and S was “inhibits cathepsins K, B, L and S”.
